Assay results as given in US6710048B2, “Pyrazine derivatives as modulators of tyrosine kinases” (Ortho-McNeil Pharmaceutical, Inc., priority 2000, dated 2004).

How the values were obtained:
FGF-R2 = FGF-R2 (Homo sapiens, UniProt P21802); assay: FGF-R2 kinase selectivity assay; type: biochemical; details: Table 4 kinase selectivity; read-out: IC50, Assay 15 FGF-R2
Description: (§1) Assays to test compound inhibition of other kinases were preformed using methods that measure the amount of phosphorylation of a biotinylated peptide substrate. Biotinylated peptide substrates were selected from the literature as appropriate for the enzyme being evaluated. The general procedure used to assay for kinase activity is as follows: A kinase reaction mix was prepared in 50 mM Tris-HCl pH=8, 10 mM MgCl2, 0.1 mM NaVO4, 1 mM DTT, 5-10 μM ATP, 0.25-1 μM biotinylated peptide substrate, 0.2-0.8 μCuries per well ^33P-γ-ATP [2000-3000 Ci/mmol]. Assay conditions vary slightly for each protein kinase, for example, insulin receptor kinase requires 10 mM MnCl2 for activity and Calmodulin-dependent protein kinase requires calmodulin and 2 mM CaCl2. The reaction mixture was dispensed into the wells of a streptavidin coated Flashplate and 1 μl drug stock in 100% DMSO was added to a 100 μl reaction volume resulting in a final concentration of 1% DMSO in the reaction. Enzyme was diluted in 50 mM Tris-HCl pH=8.0, 0.1% BSA and added to each well. The reaction was incubated for one hour at 30° C. in the presence of compound. After one hour the reaction mix was aspirated from the plate and the plate was washed with PBS containing 100 mM EDTA. The plate was read on a scintillation counter to determine ^33P-γ-ATP incorporated into the immobilized peptide. Test compounds were assayed in duplicate at 8 concentrations [100 tM, 10 μM, 1 μM, 100 nM, 10 nM, 1 nM, 100 μM, 10 μM]. A maximum and minimum signal for the assay was determined on each plate. The IC50 was calculated from the dose response curve of the percent inhibition of the maximum signal in the assay according to the formula [max signal−background/test compound signal−background (100)=% inhibition] by graphing the percent inhibition against the log concentration of test compound. Known inhibitor compounds appropriate for the kinase being assayed were also included on each plate.

[1] = biological target: T1, Glycogen Synthase Kinase-3 (beta isoform) (Oryctolagus cuniculus, UniProt G1T8E2); assay: GSK-3 kinase selectivity assay; type: biochemical, rabbit; details: Table 4 kinase selectivity; read-out: IC50, Assay 11 GSK-3
T1 construct: purchased New England Biolabs 6040; host or cells: E. coli
Description: as §1, with “The general procedure used to assay for kinase activity is as follows: A kinase reaction mix was prepared in 50 mM Tris-HCl pH=8, 10 mM MgCl2, 0.1 mM NaVO4, 1 mM DTT, 5-10 μM ATP, 0.25-1 μM biotinylated peptide substrate, 0.2-0.8 μCuries per well ^33P-γ-ATP [2000-3000 Ci/mmol].” left out
(§2) VEGF-R (vascular endothelial growth factor receptor-2) is a fusion protein containing a polyhistidine tag at the N-terminus followed by amino acids 786-1343 of the rat VEGF-R2 kinase domain (GenBank Accession #U93306). CDK1 (cyclin dependent kinase 1) is isolated from insect cells expressing both the human CDK1 catalytic subunit and its positive regulatory subunit cyclin B (New England Biolabs, Beverly, Mass., Cat. #6020). CDK4 (cyclin dependent kinase 4) contains amino acids 769 to 921 of the mouse […] protein found in the GST-retinoblastoma protein construct (Santa Cruz Biotechnology, Santa Cruz, Calif.; Cat. #SC-4112). Insulin Receptor Kinase consists of residues 941-1313 of the cytoplasmic domain of the beta-subunit of the human insulin receptor (BIOMOL, Plymouth Meeting, Pa., Cat. #SE-195). Protein Kinase A is the catalytic subunit of cAMP dependent protein kinase-A purified from bovine heart (Upstate Biotech, Lake Placid, N.Y., Cat#14-114). PKC (protein kinase-C) is the gamma or beta isoform of the human protein produced in insect cells (BIOMOL, Plymouth Meeting, Pa., Cat. #SE-143). Casein Kinase 1 is a truncation at amino acid 318 of the C-terminal portion of the rat CK1 delta isoform produced in E.coli (New England Biolabs, Beverly, Mass., Cat. #6030). Casein Kinase 2 includes the alpha and beta subunits of the human CK2 protein produced in E.coli (New England Biolabs, Beverly, Mass., Cat. #6010). Calmodulin Kinase (calmodulin-dependent protein kinase 2) is a truncated version of the alpha subunit of the rat protein produced in insect cells (New England Biolabs, Beverly, Mass., Cat. #6060). Glycogen Synthase Kinase-3 is the beta isoform of the rabbit enzyme produced in E. coli (New England Biolabs, Beverly, Mass., Cat. #6040). MAP Kinase is the rat ERK-2 isoform containing a polyhistidine tag at the N-terminus produced in E. coli. and activated by phosphorylation with MEK1 prior to purification (BIOMOL, Plymouth Meeting, Pa., Cat. #SE-137). EGFR (epidermal growth factor receptor) is purified from human A431 cell membranes (Sigma, St. Louis, Mo., Cat.# E3641). PDGF-R (platelet derived growth factor receptor) is a fusion protein containing a polyhistidine tag at the N-terminus followed by nucleotides 1874-3507 of the human PDGF-R beta subunit kinase domain (Accession #M21616). […]

[2] = biological target: T2, PDGF-R (platelet derived growth factor receptor) (Homo sapiens, UniProt P09619); assay: PDGF-R kinase selectivity assay; type: biochemical; details: Table 4 kinase selectivity; read-out: IC50, Assay 14 PDGF-R
T2 construct: polyhistidine (N)
Description: as §1, with “The general procedure used to assay for kinase activity is as follows: A kinase reaction mix was prepared in 50 mM Tris-HCl pH=8, 10 mM MgCl2, 0.1 mM NaVO4, 1 mM DTT, 5-10 μM ATP, 0.25-1 μM biotinylated peptide substrate, 0.2-0.8 μCuries per well ^33P-γ-ATP [2000-3000 Ci/mmol].” left out
as §2

T1 sequence (G1T8E2 1-432): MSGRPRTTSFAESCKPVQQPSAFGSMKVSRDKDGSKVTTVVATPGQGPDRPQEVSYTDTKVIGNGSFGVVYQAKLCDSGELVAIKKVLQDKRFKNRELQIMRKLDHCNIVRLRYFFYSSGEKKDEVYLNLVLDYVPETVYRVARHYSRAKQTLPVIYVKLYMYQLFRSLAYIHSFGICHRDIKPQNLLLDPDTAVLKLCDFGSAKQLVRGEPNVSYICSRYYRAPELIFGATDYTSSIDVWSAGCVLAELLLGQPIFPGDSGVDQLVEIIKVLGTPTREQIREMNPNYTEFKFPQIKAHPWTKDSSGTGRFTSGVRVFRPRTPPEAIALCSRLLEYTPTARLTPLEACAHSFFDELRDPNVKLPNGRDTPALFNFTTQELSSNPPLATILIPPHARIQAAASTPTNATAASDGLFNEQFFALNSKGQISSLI
FGF-R2, sequence (P21802 22-821, species assumed): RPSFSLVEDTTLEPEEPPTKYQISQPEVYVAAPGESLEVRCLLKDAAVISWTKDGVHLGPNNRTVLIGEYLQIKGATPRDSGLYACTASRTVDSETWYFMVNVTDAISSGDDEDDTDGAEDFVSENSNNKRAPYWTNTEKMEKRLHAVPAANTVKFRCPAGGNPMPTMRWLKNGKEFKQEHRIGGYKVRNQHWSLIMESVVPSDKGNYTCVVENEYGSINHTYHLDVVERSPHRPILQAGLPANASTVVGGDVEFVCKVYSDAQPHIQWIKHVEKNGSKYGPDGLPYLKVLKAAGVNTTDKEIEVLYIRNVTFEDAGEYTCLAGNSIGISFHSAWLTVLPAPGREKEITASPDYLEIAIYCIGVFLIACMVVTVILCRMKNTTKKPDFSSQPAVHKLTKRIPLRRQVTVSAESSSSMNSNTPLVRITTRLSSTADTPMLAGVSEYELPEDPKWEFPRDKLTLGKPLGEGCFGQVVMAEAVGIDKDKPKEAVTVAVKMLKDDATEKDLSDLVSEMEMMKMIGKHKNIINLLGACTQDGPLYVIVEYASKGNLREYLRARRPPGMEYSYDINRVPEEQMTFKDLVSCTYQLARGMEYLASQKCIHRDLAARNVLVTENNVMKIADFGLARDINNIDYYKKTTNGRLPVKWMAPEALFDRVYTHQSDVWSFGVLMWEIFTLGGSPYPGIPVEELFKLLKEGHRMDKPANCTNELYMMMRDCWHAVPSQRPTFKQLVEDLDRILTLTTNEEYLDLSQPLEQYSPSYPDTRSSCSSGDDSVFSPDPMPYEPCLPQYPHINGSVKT
T2 sequence (P09619 554-1106 limits assumed): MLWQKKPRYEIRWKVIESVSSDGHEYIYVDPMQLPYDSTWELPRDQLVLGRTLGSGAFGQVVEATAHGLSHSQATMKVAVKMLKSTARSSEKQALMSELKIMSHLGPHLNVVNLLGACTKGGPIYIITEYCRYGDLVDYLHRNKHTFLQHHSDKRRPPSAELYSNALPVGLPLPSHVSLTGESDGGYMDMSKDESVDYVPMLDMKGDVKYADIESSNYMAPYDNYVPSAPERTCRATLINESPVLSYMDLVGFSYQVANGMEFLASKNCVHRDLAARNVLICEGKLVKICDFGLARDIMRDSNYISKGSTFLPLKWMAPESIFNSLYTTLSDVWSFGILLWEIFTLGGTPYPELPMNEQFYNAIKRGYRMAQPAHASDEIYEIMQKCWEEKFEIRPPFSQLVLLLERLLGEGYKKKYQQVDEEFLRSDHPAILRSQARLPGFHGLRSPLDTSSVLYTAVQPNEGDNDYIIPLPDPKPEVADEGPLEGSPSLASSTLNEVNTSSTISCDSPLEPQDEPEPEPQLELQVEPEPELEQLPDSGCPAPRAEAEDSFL

| SMILES | IC50 (FGF-R2) [nM] | IC50 [1] [nM] | IC50 [2] [nM] |
| --- | --- | --- | --- |
| CN(C)CCNc1cncc(-c2cncc(Nc3cccc(Cl)c3)n2)c1 [Cmd 33, N′-[5-[6-[(3-chlorophenyl)amino]pyrazinyl]-3-pyridinyl]-N^2,N^2-dimethyl-1,2-ethanediamine] | 1400 | 11400 | 29200 |
| CN(C)CCCNc1cncc(-c2cncc(Nc3cccc(Cl)c3)n2)c1 [Cmd 35] | 3070 | 8150 | 2500 |
| O=C(NCCCO)c1cncc(-c2cncc(Nc3cccc(Cl)c3)n2)c1 [Cmd 39] | 1800 | 866 | 2800 |
| Clc1cccc(Nc2cncc(-c3cncc(NCCCc4ccncc4)c3)n2)c1 [Cmd 71] | 317 | 159 | 1000 |
| Clc1cccc(Nc2cncc(-c3cncc(NCCCc4cccnc4)c3)n2)c1 [Cmd 72] | 293 | 318 | 876 |
| Clc1cccc(Nc2cncc(-c3cncc(NCCCn4cccn4)c3)n2)c1 [Cmd 75] | 326 | 606 | – |

Results, then the compound that gave them:

| IC50 (FGF-R2) [nM] | IC50 [1] [nM] | IC50 [2] [nM] | SMILES |
| --- | --- | --- | --- |
| 207 | 478 | – | OCCCNc1cncc(-c2cncc(Nc3cccc(Cl)c3)n2)c1 [Cmd 4] |
| 2360 | 4020 | 2800 | OCCCCNc1cncc(-c2cncc(Nc3cccc(Cl)c3)n2)c1 [Cmd 32] |
| 276 | 491 | 175 | Clc1cccc(Nc2cncc(-c3cncc(NCCCN4CCCCC4)c3)n2)c1 [Cmd 73] |
| 153 | 196 | 725 | Clc1cccc(Nc2cncc(-c3cncc(NCCCn4cncn4)c3)n2)c1 [Cmd 76] |
